We go through 23 compounds from patent publication US20230339939A1 (Bayer Aktiengesellschaft, priority 2020, published 2023).

Assay [1] has as its target wild-type Epidermal Growth Factor Receptor (EGFR) (Homo sapiens (Human), UniProt P00533). In words: WT-EGFR Kinase Assay (TR-FRET, 2 mM ATP). It is filed as biochemical. In short, it runs like this: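 GST-fused human EGFR fragment (R669-A1210) from Sf9 cells, typically 7.6 pg/μL, pre-incubated with compound 15 min at 22° C in Hepes pH 7.0 buffer with MgCl2, DTT and vanadate; biotinylated peptide substrate. After EDTA stop, phosphopeptide detected by TR-FRET (anti-phosphotyrosine Tb-cryptate/streptavidin-XL665), 665/620 nm emission ratio.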
A general note: In TR-FRET formats the signal depends on donor and acceptor labels being close together.

The target of a further assay is CSNK1A1 (Homo sapiens (Human), UniProt P48729). In words: CSNK1A1 High ATP Assay (ADP-Glo, 1 mM ATP). In kind it is biochemical. To be noted: median, read-out: CSNK1A1 high ATP assay IC50 [mol/l] (median). The gist of the method:
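GST-tagged full-length human CSNK1A1 from baculovirus-infected insect cells (typically about 0.4 ng/μL), pre-incubated with compound 15 min at 22 °C. Reaction with biotinylated peptide biotin-Ahx-KRRRAL-pS-VASLPGL at 1 mM ATP. ADP formed read by ADP-Glo luminescence.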
A general note: In ADP-Glo the light output rises with the ADP produced.

Setting [2] is: read-out: EGFR Wildtype 2 mM ATP IC50 [mol/l] (median).

Read-outs that look alike come from different tables or passages of the source. Where only a bound is given, the exact number is not on record here.

Chain of wild-type Epidermal Growth Factor Receptor (EGFR) (P00533 669-1210): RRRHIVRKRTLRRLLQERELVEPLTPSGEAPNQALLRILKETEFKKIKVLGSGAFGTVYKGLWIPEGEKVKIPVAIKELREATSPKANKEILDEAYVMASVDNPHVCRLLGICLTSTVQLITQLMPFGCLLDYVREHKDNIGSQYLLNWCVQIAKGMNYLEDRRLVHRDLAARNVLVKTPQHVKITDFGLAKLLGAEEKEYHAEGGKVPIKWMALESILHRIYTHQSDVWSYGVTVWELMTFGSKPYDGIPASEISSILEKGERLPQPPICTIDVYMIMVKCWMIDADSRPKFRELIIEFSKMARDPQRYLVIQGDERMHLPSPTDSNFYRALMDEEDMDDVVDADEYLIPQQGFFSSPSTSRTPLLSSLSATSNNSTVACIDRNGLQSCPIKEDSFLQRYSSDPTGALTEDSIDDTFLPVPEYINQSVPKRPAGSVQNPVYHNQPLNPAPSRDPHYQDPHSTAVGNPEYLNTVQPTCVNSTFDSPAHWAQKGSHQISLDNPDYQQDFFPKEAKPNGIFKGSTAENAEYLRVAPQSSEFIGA
Chain of CSNK1A1 (P48729 whole entry): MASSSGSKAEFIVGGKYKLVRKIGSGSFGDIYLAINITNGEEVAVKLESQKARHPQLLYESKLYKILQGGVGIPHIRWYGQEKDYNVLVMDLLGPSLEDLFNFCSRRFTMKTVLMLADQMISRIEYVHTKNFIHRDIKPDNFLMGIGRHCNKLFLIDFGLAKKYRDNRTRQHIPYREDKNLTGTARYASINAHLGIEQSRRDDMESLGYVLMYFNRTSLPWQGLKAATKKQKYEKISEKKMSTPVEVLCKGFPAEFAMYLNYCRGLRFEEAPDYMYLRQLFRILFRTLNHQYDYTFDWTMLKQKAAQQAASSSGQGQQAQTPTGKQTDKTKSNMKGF

As to `CC(C(=O)Nc1cc(-c2[nH]c3cccnc3c2-c2ccccn2)ccn1)c1ccc(F)cc1` (single isomer, unassigned; (+)) [Example 7, (+)-2-(4-fluorophenyl)-N-{4-[3-(pyridin-2-yl)-1H-pyrrolo[3,2-b]pyridin-2-yl]pyridin-2-yl}propanamide], the values for the IC50 (in assay [1] (median); on CSNK1A1) were over 20000 nM and 4.32 nM, respectively.
On to `CN1CCN(c2ccnc3c(-c4ccccn4)c(-c4ccnc(NC(=O)Cc5ccc(F)cc5)c4)[nH]c23)CC1` [Example 38, 2-(4-fluorophenyl)-N-{4-[7-(4-methylpiperazin-1-yl)-3-(pyridin-2-yl)-1H-pyrrolo[3,2-b]pyridin-2-yl]pyridin-2-yl}acetamide], for which the values for the IC50 (in assay [1] (setting [2]); at CSNK1A1) were over 20000 nM and 19.8 nM, respectively.
Turning to `CC(C(=O)Nc1cc(-c2[nH]c3ccc(F)nc3c2-c2ccccn2)ccn1)c1ccc(F)cc1` (single isomer, unassigned; (-)) [Example 2, (−)-2-(4-fluorophenyl)-N-{4-[5-fluoro-3-(pyridin-2-yl)-1H-pyrrolo[3,2-b]pyridin-2-yl]pyridin-2-yl}propanamide], the IC50 in assay [1] (median) is over 20000 nM; on CSNK1A1 it was 886 nM.
As for `O=C(Cc1ccc(F)cc1)Nc1cc(-c2[nH]c3cccnc3c2-c2ccc(Cl)s2)ccn1` [Example 17, N-{4-[3-(5-chlorothiophen-2-yl)-1H-pyrrolo[3,2-b]pyridin-2-yl]pyridin-2-yl}-2-(4-fluorophenyl)acetamide], the IC50 in assay [1] (setting [2]) was over 20000 nM; at CSNK1A1, 87.3 nM.
For `CC(C)C(C(=O)Nc1cc(-c2[nH]c3ccc(F)nc3c2-c2ccccn2)ccn1)c1ccc(F)cc1` (single isomer, unassigned; (+)) [Example 26, (+)-2-(4-fluorophenyl)-N-{4-[5-fluoro-3-(pyridin-2-yl)-1H-pyrrolo[3,2-b]pyridin-2-yl]pyridin-2-yl}-3-methylbutanamide] the same measures were over 20000 nM and 48.6 nM.
For `O=C(Cc1ccc(Cl)cc1)Nc1cc(-c2[nH]c3cccnc3c2-c2ccccn2)ccn1` [Example 42, 2-(4-chlorophenyl)-N-{4-[3-(pyridin-2-yl)-1H-pyrrolo[3,2-b]pyridin-2-yl]pyridin-2-yl}acetamide] the same measures were over 20000 nM and 7.14 nM.
For `CC(C(=O)Nc1cc(-c2[nH]c3ccc(F)nc3c2-c2ccccn2)ccn1)c1ccc(F)cc1` (single isomer, unassigned; (+)) [Example 3, (+)-2-(4-fluorophenyl)-N-{4-[5-fluoro-3-(pyridin-2-yl)-1H-pyrrolo[3,2-b]pyridin-2-yl]pyridin-2-yl}propanamide] the same measures were over 20000 nM and 12 nM.
In the case of `COCCc1ccnc2c(-c3ccccn3)c(-c3ccnc(NC(=O)Cc4ccc(F)cc4)c3)[nH]c12` [Example 36, 2-(4-fluorophenyl)-N-{4-[7-(2-methoxyethyl)-3-(pyridin-2-yl)-1H-pyrrolo[3,2-b]pyridin-2-yl]pyridin-2-yl}acetamide], the figures for the IC50 (in assay [1] (setting [2]); on CSNK1A1) were over 20000 nM and 31.8 nM, respectively.
For `O=C(Cc1ccccc1)Nc1cc(-c2[nH]c3cccnc3c2-c2ccccn2)ccn1` [Example 46, 2-phenyl-N-(4-(3-(pyridin-2-yl)-1H-pyrrolo[3,2-b]pyridin-2-yl)pyridin-2-yl)acetamide] the same measures were over 20000 nM and 14.6 nM.
For `Cc1cc(CC(=O)Nc2cc(-c3[nH]c4cccnc4c3-c3ccccn3)ccn2)ccc1F` [Example 41, 2-(4-fluoro-3-methylphenyl)-N-{4-[3-(pyridin-2-yl)-1H-pyrrolo[3,2-b]pyridin-2-yl]pyridin-2-yl}acetamide] the same measures were over 20000 nM and 19 nM.
Consider `Cc1cc2[nH]c(-c3ccnc(NC(=O)C(C)c4ccc(F)cc4)c3)c(-c3ccccn3)c2nc1F` (racemic) [Example 28, N-{4-[5-fluoro-6-methyl-3-(pyridin-2-yl)-1H-pyrrolo[3,2-b]pyridin-2-yl]pyridin-2-yl}-2-(4-fluorophenyl)propanamide], for which the IC50 was over 20000 nM in assay [1] (median) and 59.1 nM on CSNK1A1.
The matching figures for `CC(C(=O)Nc1cc(-c2[nH]c3cccnc3c2-c2ccccc2)ccn1)c1ccc(F)cc1` (racemic) [Example 11, 2-(4-fluorophenyl)-N-[4-(3-phenyl-1H-pyrrolo[3,2-b]pyridin-2-yl)pyridin-2-yl]propanamide]: over 20000 nM and 321 nM.
On to `O=C(Cc1ccc(F)cc1)Nc1cc(-c2[nH]c3ccc(F)nc3c2-c2ccccn2)ccn1` [Example 4, 2-(4-fluorophenyl)-N-{4-[5-fluoro-3-(pyridin-2-yl)-1H-pyrrolo[3,2-b]pyridin-2-yl]pyridin-2-yl}acetamide], for which the IC50 in assay [1] (setting [2]) is over 20000 nM; at CSNK1A1 it was 5.72 nM.
For `O=C(Cc1ccc(F)cc1)Nc1cc(-c2[nH]c3cc(F)cnc3c2-c2ccccn2)ccn1` [Example 9, 2-(4-fluorophenyl)-N-{4-[6-fluoro-3-(pyridin-2-yl)-1H-pyrrolo[3,2-b]pyridin-2-yl]pyridin-2-yl}acetamide] the same measures were over 20000 nM and 33.6 nM.
For `O=C(Cc1ccc(F)cc1)Nc1cc(-c2[nH]c3cc(F)cnc3c2-c2ccccc2)ccn1` [Example 10, 2-(4-fluorophenyl)-N-[4-(6-fluoro-3-phenyl-1H-pyrrolo[3,2-b]pyridin-2-yl)pyridin-2-yl]acetamide] the same measures were over 20000 nM and 302 nM.
For `O=C(Cc1ccc(F)cc1)Nc1cc(-c2[nH]c3ccc(Cl)nc3c2-c2ccccn2)ccn1` [Example 23, N-{4-[5-chloro-3-(pyridin-2-yl)-1H-pyrrolo[3,2-b]pyridin-2-yl]pyridin-2-yl}-2-(4-fluorophenyl)acetamide] the same measures were over 20000 nM and 40.9 nM.
Take `O=C(Cc1ccc(F)cc1)Nc1cc(-c2[nH]c3ccnnc3c2-c2ccccn2)ccn1` [Example 21, 2-(4-fluorophenyl)-N-{4-[7-(pyridin-2-yl)-5H-pyrrolo[3,2-c]pyridazin-6-yl]pyridin-2-yl}acetamide]: the IC50 in assay [1] (setting [2]) was over 20000 nM; on CSNK1A1, 25.1 nM.
For `O=C(Cc1ccc(F)cc1)Nc1cc(-c2[nH]c3c(Cl)ccnc3c2-c2ccccn2)ccn1` [Example 22, N-{4-[7-chloro-3-(pyridin-2-yl)-1H-pyrrolo[3,2-b]pyridin-2-yl]pyridin-2-yl}-2-(4-fluorophenyl)acetamide] the same measures were over 20000 nM and 21.8 nM.
As for `O=C(Cc1ccc(F)cc1)Nc1cc(-c2[nH]c3cccnc3c2-c2cccc(F)c2)ccn1` [Example 15, 2-(4-fluorophenyl)-N-{4-[3-(3-fluorophenyl)-1H-pyrrolo[3,2-b]pyridin-2-yl]pyridin-2-yl}acetamide], the figures for the IC50 (in assay [1] (setting [2]); on CSNK1A1) were over 20000 nM and 87.7 nM, respectively.
Regarding `CC(C)C(C(=O)Nc1cc(-c2[nH]c3ccc(F)nc3c2-c2ccccn2)ccn1)c1ccc(F)cc1` (single isomer, unassigned; (-)) [Example 25, (−)-2-(4-fluorophenyl)-N-{4-[5-fluoro-3-(pyridin-2-yl)-1H-pyrrolo[3,2-b]pyridin-2-yl]pyridin-2-yl}-3-methylbutanamide], the IC50 in assay [1] (median) is over 20000 nM; at CSNK1A1, 2320 nM.
`O=C(Cc1ccc(F)cc1)Nc1cc(-c2[nH]c3c(N4CCCC4=O)ccnc3c2-c2ccccn2)ccn1` [Example 40, 2-(4-fluorophenyl)-N-{4-[7-(2-oxopyrrolidin-1-yl)-3-(pyridin-2-yl)-1H-pyrrolo[3,2-b]pyridin-2-yl]pyridin-2-yl}acetamide]: the IC50 in assay [1] (setting [2]) was over 20000 nM; at CSNK1A1, 30.1 nM.
With `Cc1cc2[nH]c(-c3ccnc(NC(=O)C(C)c4ccc(F)cc4)c3)c(-c3ccccn3)c2nc1F` (single isomer, unassigned; (+)) [Example 29, (+)-N-{4-[5-fluoro-6-methyl-3-(pyridin-2-yl)-1H-pyrrolo[3,2-b]pyridin-2-yl]pyridin-2-yl}-2-(4-fluorophenyl)propanamide], the values for the IC50 (in assay [1] (median); on CSNK1A1) were over 20000 nM and 1140 nM, respectively.
For the compound `Cc1cc2[nH]c(-c3ccnc(NC(=O)C(C)c4ccc(F)cc4)c3)c(-c3ccccn3)c2nc1F` (single isomer, unassigned; (-)) [Example 30, (−)-N-{4-[5-fluoro-6-methyl-3-(pyridin-2-yl)-1H-pyrrolo[3,2-b]pyridin-2-yl]pyridin-2-yl}-2-(4-fluorophenyl)propanamide], the IC50 in assay [1] (setting [2]) was over 20000 nM; at CSNK1A1, 23.7 nM.
